For data set [1], the system named is NIH3T3. Kind of data set: Antitumor activity against mouse 3T3 cells allografted in athymic nu/nu CD-1 mouse assessed as tumor regression at 25 mg/kg, po for 12 days relative to control. Type of data set: functional. The following applies: time 12 day.
Data set [2] has as its target T1, Cytochrome P450 1A2 (Homo sapiens, UniProt P05177).
T1 sequence (P05177 whole entry): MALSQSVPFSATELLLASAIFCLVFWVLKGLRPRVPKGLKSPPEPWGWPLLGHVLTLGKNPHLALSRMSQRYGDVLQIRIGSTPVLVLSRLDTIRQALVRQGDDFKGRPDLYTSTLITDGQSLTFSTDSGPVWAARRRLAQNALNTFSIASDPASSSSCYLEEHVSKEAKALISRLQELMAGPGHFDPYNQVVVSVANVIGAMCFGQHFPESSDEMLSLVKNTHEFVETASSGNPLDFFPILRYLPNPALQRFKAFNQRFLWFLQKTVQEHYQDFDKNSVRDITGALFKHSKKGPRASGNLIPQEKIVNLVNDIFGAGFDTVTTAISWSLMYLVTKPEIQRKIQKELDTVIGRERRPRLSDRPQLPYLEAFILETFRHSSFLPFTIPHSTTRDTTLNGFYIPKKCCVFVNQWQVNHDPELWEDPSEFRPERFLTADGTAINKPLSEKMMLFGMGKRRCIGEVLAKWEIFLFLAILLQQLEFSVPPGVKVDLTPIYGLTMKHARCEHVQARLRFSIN
Kind of data set: Inhibition of CYP1A2 (unknown origin) in presence of NADPH generating system incubated for 20 mins by luminescent method. It is filed as ADME.

For data set [3], the target named is Platelet-derived growth factor receptor (Homo sapiens, UniProt P09619+P16234). Kind of data set: Inhibition of PDGFR-alpha/beta (unknown origin) in presence of ATP Km treated at 2 hrs followed by […] ligand addition for 15 mins by ELISA analysis.
Data set [4] can be described thus: Volume of distribution at steady state in Beagle dog measured at 2.5 mg/kg, iv for 1 to 24 hrs by HPLC-MS/MS analysis. Type of data set: ADME, organism-based, Canis lupus familiaris. The following applies: in vivo, time 1-24 hrs, read-out: Vdss.
A short description of data set [5]: AUC last in CD-1 mouse measured at 5 mg/kg, po for 1 to 24 hrs by HPLC-MS/MS analysis. It is filed as ADME, organism-based. The note with it: in vivo, time 1-24 hrs.
Data set [6] in a line: Plasma concentration in CD-1 mouse measured at 25 mg/kg, po for 24 hrs by HPLC-MS/MS analysis. Type of data set: ADME, organism-based.
A short description of data set [7]: Elimination half life in Sprague-Dawley rat measured at 5 mg/kg, iv for 1 to 24 hrs by HPLC-MS/MS analysis. Type of data set: ADME, organism-based. The following applies: in vivo, time 1-24 hrs, read-out: beta t1/2 (converted).
Data set [8] is described as follows: AUC last in CD-1 mouse measured at 250 mg/kg, po for 1 to 24 hrs by HPLC-MS/MS analysis. Type of data set: ADME, organism-based. The note with it: in vivo, time 1-24 hrs.
Data set [9] in a line: Oral bioavailability in CD-1 mouse measured at 250 mg/kg for 1 to 24 hrs by HPLC-MS/MS analysis. It is filed as ADME, organism-based. The note with it: in vivo, time 1-24 hrs.

As for `C[C@]1(O)C[C@@H](c2nc(-c3ccc4ccc(-c5ccccc5)nc4c3)c3c(N)nccn32)C1` [LINSITINIB], the Activity in data set [1] is 0%. Also, the IC50 in data set [2] and in data set [3] was above 10 µM each time. Further, the Vd in data set [4] amounted to 4.3 L/kg. Also, the AUC(0-t) in data set [5] is 6.77 µg·h/mL; in data set [8] it was 317 µg·h/mL. Besides, the concentration at 24 h in data set [6] worked out at 20 nM. Moreover, the half-life in data set [7] is 2.64 h. The compound also yielded a bioavailability in data set [9] above 100%.

Values taken from ChEMBL document CHEMBL5661980, “Discovery of OSI-906: a selective and orally efficacious dual inhibitor of the IGF-1 receptor and insulin receptor” (Future Med Chem, 2009).
